Experimental data from PMC2362731, “Phase I study of Carzelesin (U-80,244) given (4-weekly) by intravenous bolus schedule” (British Journal of Cancer, 1999).

System: patients with advanced solid tumours
Test: Phase I toxicity of Carzelesin, 4-weekly 10 min IV infusion (NCI-CTC grading)
Type: in vivo, human
Procedure: Carzelesin is a cyclopropylpyrroloindole analogue which acts as a DNA-sequence-specific alkylating agent. In this phase I study, Carzelesin was given as a 4-weekly 10 min IV infusion to 51 patients with advanced solid tumours. Patients received a median of two courses (range 1–5) at one of nine dose levels: 24, 48, 96, 130, 150, 170, 210, 250 and 300 μg m^−2. According to NCI-CTC criteria, non-haematological toxicities (grade 1/2) included fever, nausea and vomiting, mucositis and anorexia, none of which was clearly dose related. The dose-limiting toxicity was haematological and consisted mainly of neutropenia and to a lesser extent thrombocytopenia. From the dose level 150 μg m^−2, the haematological toxicity (particularly thrombocytopenia) was delayed in onset, prolonged and cumulative in some patients. In several courses, double WBC nadirs occurred. The maximum tolerated dose for a single course was 300 μg m^−2. From the dose level 170 μg m^−2, the intended dose intensity could not be delivered to most patients receiving > 2 courses owing to cumulative haematological toxicity. The dose level with the best dose intensity for multiple courses was 150 μg m^−2. The pharmacokinetics of Carzelesin and its metabolites (U-76,073; U-76,074) have been established in 31 patients during the first course of treatment using a HPLC method. […] The concentration of U-76,074 (active metabolite) extended above the lower limit of quantitation (1 ng ml^−1) for short periods of time and only at the higher dose levels. There was no relationship between neutropenia and the AUC of the prodrug Carzelesin, but the presence of detectable plasma levels of the active metabolite U-76,074 was usually associated with a substantial decrease in ANC values. © 1999 Cancer Research Campaign
Carzelesin (U-80,244, Figure 1A) is a cyclopropylpyrroloindole (CPI) prodrug analogue of CC-1065. […] CPI drugs are a class of compounds with unique DNA interactive properties. These agents fit into the minor groove region of DNA, and the CPI function in the molecule mediates a covalent binding to the N3 position of adenine in A-T rich regions, thus forming DNA adducts in a sequence selective fashion (Hurley et al, 1984; Reynolds et al, 1985). Three new CPIs have now been developed. […] Bizelesin differs from the classical CPI drugs in that it contains two chloromethyl functions, which are both converted (via intramolecular rearrangements) to the CPI alkyl- ating species that interact with DNA. Consequently, this agent is capable of forming DNA interstrand cross-links (Lee et al, 1991). […] Therefore, efforts were directed to modu- late the alkylation rate by the preparation of CPI prodrugs that would require chemical or enzymatic conversion. The activation of Carzelesin is a two-step reaction with hydrolysis of the phenyl- urethane substituent to form the intermediate compound U-76,073, followed by ring closure to form the active product U-76,074 (Figure 1B). […] This higher efficacy may be related to the pharmacologic features of the compound. […] Phase I study of Carzelesin (U-80,244) given (4-weekly) by intravenous bolus schedule A Awada1, CJA Punt2, MJ Piccart1, O Van Tellingen3, L Van Manen2, J Kerger1, Y Groot4, J Wanders4, J Verweij5 and DJTh Wagener2 1Institut Jules Bordet, Bd de Waterloo 125, 1000 Brussels, Belgium; 2University Hospital, Geert Grooteplein 8, Box 9101, 6500 HB Nijmegen, The Netherlands; 3The Netherlands Cancer Institute (Antoni van Leeuwenhoek Huis), Plesmanlaan 121, 1066 CX Amsterdam, The Netherlands; 4European Organization for Research and Treatment of Cancer - New Drug Development Office, PO Box 7057, Amsterdam, The Netherlands; 5Rotterdam Cancer Institute, Groene Hilledijk 301, 3075 EA Rotterdam, The Netherlands; on behalf of the EORTC Early Clinical Studies Group and EORTC NDDO Summary Carzelesin is a cyclopropylpyrroloindole analogue which acts as a DNA-sequence-specific alkylating agent. […]

[1] = Table 4, dose levels 150-300 μg m-2 combined, 31 evaluable patients

SMILES: CCN(CC)c1ccc2cc(C(=O)Nc3ccc4[nH]c(C(=O)N5C[C@@H](CCl)c6c5cc(OC(=O)Nc5ccccc5)c5[nH]cc(C)c65)cc4c3)oc2c1 [Carzelesin]
- Thrombocytopenia grade 3/4, patients following the first course (Table 3, dose level 210 μg m-2, one patient had pre-existing grade 1 thrombocytopenia): 0/1
- Neutropenia grade 3/4, No. of courses (Table 3, dose level 250 μg m-2): 1/2
- Neutropenia grade 3/4, No. of patients (worst grade per patient) (Table 3, dose level 250 μg m-2): 0/2
- Neutropenia grade 3/4, patients following the first course (Table 3, dose level 250 μg m-2): 1/1
- No. of toxic patients following the first course (Table 3, dose level 250 μg m-2): 2
- Thrombocytopenia grade 3/4, No. of courses (Table 3, dose level 250 μg m-2): 1/1
- Thrombocytopenia grade 3/4, No. of patients (worst grade per patient) (Table 3, dose level 250 μg m-2): 1/1
- Thrombocytopenia grade 3/4, patients following the first course (Table 3, dose level 250 μg m-2): 1/0
- No. of toxic patients/courses (grade 3/4 neutropenia and/or thrombocytopenia) (Table 3, dose level 250 μg m-2, 5/7 evaluable patients/courses): 2/3
- Neutropenia grade 3/4, No. of courses (Table 3, dose level 300 μg m-2): 1/2
- Neutropenia grade 3/4, No. of patients (worst grade per patient) (Table 3, dose level 300 μg m-2): 1/2
- Neutropenia grade 3/4, patients following the first course (Table 3, dose level 300 μg m-2): 1/2
- No. of toxic patients following the first course (Table 3, dose level 300 μg m-2): 3
- Thrombocytopenia grade 3/4, No. of courses (Table 3, dose level 300 μg m-2): 1/1
- Thrombocytopenia grade 3/4, No. of patients (worst grade per patient) (Table 3, dose level 300 μg m-2): 1/1
- Thrombocytopenia grade 3/4, patients following the first course (Table 3, dose level 300 μg m-2): 1/1
- No. of toxic patients/courses (grade 3/4 neutropenia and/or thrombocytopenia) (Table 3, dose level 300 μg m-2, 4/4 evaluable patients/courses): 3/3
- Anorexia, patients with worst CTC-grade 1 [1]: 5
- Anorexia, patients with worst CTC-grade 2 [1]: 5
- Anorexia, patients with worst CTC-grade 3 [1]: 0
- Anorexia, patients with worst CTC-grade 4 [1]: 0
- Bilirubin toxicity, patients with worst CTC-grade 2 [1]: 6
- Bilirubin toxicity, patients with worst CTC-grade 3 [1]: 1
- Bilirubin toxicity, patients with worst CTC-grade 4 [1]: 0
- Creatinine toxicity, patients with worst CTC-grade 1 [1]: 6
- Creatinine toxicity, patients with worst CTC-grade 2 [1]: 1
- Creatinine toxicity, patients with worst CTC-grade 3 [1]: 0
- Creatinine toxicity, patients with worst CTC-grade 4 [1]: 0
- Diarrhoea, patients with worst CTC-grade 1 [1]: 5
- Diarrhoea, patients with worst CTC-grade 2 [1]: 1
- Diarrhoea, patients with worst CTC-grade 3 [1]: 0
- Fatigue/asthenia, patients with worst CTC-grade 1 [1]: 3
- Fatigue/asthenia, patients with worst CTC-grade 2 [1]: 9
- Fatigue/asthenia, patients with worst CTC-grade 3 [1]: 3
- Fatigue/asthenia, patients with worst CTC-grade 4 [1]: 0
- Fever, patients with worst CTC-grade 1 [1]: 4
- Fever, patients with worst CTC-grade 2 [1]: 5
- Fever, patients with worst CTC-grade 3 [1]: 2
- Fever, patients with worst CTC-grade 4 [1]: 0
- Mucositis, patients with worst CTC-grade 1 [1]: 7
- Mucositis, patients with worst CTC-grade 2 [1]: 1
- Mucositis, patients with worst CTC-grade 3 [1]: 0
- Mucositis, patients with worst CTC-grade 4 [1]: 0
- Nausea, patients with worst CTC-grade 1 [1]: 11
- Nausea, patients with worst CTC-grade 2 [1]: 6
- Nausea, patients with worst CTC-grade 3 [1]: 2
- Nausea, patients with worst CTC-grade 4 [1]: 0
- Pain at the infusion site, patients with worst CTC-grade 1 [1]: 9
- Pain at the infusion site, patients with worst CTC-grade 2 [1]: 2
- Pain at the infusion site, patients with worst CTC-grade 3 [1]: 0
- Pain at the infusion site, patients with worst CTC-grade 4 [1]: 0
- Proteinuria, patients with worst CTC-grade 1 [1]: 3
- Proteinuria, patients with worst CTC-grade 2 [1]: 0
- Proteinuria, patients with worst CTC-grade 3 [1]: 0
- Proteinuria, patients with worst CTC-grade 4 [1]: 0
- Vomiting, patients with worst CTC-grade 1 [1]: 7
- Vomiting, patients with worst CTC-grade 2 [1]: 5
- Vomiting, patients with worst CTC-grade 3 [1]: 2
- Vomiting, patients with worst CTC-grade 4 [1]: 0
- Diarrhoea, patients with worst CTC-grade 4 (Table 4, dose levels 150-300 μg m-2 combined, 31 evaluable patients, relation to Carzelesin was unlikely): 1
- patients who received red cell transfusions while on study (different dose levels from 130): Nine patients
- patients with grade 4 myelotoxicity (dose level 150, six evaluable patients): two patients out of six
- episode of febrile neutropenia (dose level 250): One patient
- patients with grade 4 neutropenia (dose level 300): two out of four
- patients with grade 4 myelotoxicity (dose levels 96 and 130): two patients
- grade 3 or 4 haematological toxicities (first two dose levels (24, 48)): no grade 3 or 4 haematological toxici- ties were observed
- second drop in leucocyte and neutrophil count after apparent recovery, evaluable courses (from the dose level of 130): 26%
- second drop in leucocyte and neutrophil count after apparent recovery, evaluable patients (from the dose level of 130): 33%
- non-haematological toxicities, overall (grade 1-2, none clearly dose related): infrequent and mild
- flush reaction, patients (in vivo): five patients
- haemorrhagic episodes during treatment (in vivo): No haemorrhagic episodes
- dose-limiting toxicity (mainly neutropenia, to a lesser extent thrombocytopenia): haematological
- median days to complete recovery, neutrophils (overall, median (range)): 28 (20-35) days
- median days to complete recovery, platelets (overall, median (range)): 33 (24-56) days
- median days to nadir, neutrophils (overall, median (range)): 12 (8-14) days
- median days to nadir, platelets (overall, median (range)): 20 (15-26) days
